Measured values from patent publication US20250025473A1 (priority 2021, published 2025).
Where two headings read alike, the source gives them in different places.

How the values were obtained:
[1] = biological target: T1, panel of 393 kinases (Homo sapiens, UniProt O00418); test: biochemical; conditions: CIMSS 10 μM, 10 μM ATP
T1 construct: purchased Reaction Biology Corporation

[2] = biological target: T2, panel of 393 kinases (Homo sapiens, UniProt Q13131); test: biochemical; conditions: CIMSS 10 μM, 10 μM ATP
T2 construct: purchased Reaction Biology Corporation

[3] = biological target: T3, panel of 393 kinases (Homo sapiens, UniProt Q15119); test: biochemical; conditions: CIMSS 10 μM, 10 μM ATP
T3 construct: purchased Reaction Biology Corporation

[4] = biological target: T4, panel of 393 kinases (Homo sapiens, UniProt Q15120); test: biochemical; conditions: CIMSS 10 μM, 10 μM ATP
T4 construct: purchased Reaction Biology Corporation

[5] = biological target: T5, panel of 393 kinases (Homo sapiens, UniProt Q16654); test: biochemical; conditions: CIMSS 10 μM, 10 μM ATP
T5 construct: purchased Reaction Biology Corporation

[6] = biological target: T6, panel of 393 kinases (Homo sapiens, UniProt Q96QT4); test: biochemical; conditions: CIMSS 10 μM, 10 μM ATP
T6 construct: purchased Reaction Biology Corporation

[7] = biological target: T7, panel of 393 kinases (Homo sapiens, UniProt Q9BQI3); test: biochemical; conditions: CIMSS 10 μM, 10 μM ATP
T7 construct: purchased Reaction Biology Corporation

[8] = biological target: T8, panel of 393 kinases (Homo sapiens, UniProt Q9P2K8); test: biochemical; conditions: CIMSS 10 μM, 10 μM ATP
T8 construct: purchased Reaction Biology Corporation

[9] = biological target: T9, AKT1 (Homo sapiens, UniProt P31749); test: HotSpot in vitro kinase assay, AKT1; format: biochemical
T9 construct: purchased Reaction Biology Corporation

[10] = biological target: T10, AKT2 (Homo sapiens, UniProt P31751); test: HotSpot in vitro kinase assay, AKT2; format: biochemical
T10 construct: purchased Reaction Biology Corporation

[11] = Parallel artificial membrane permeability assay (PAMPA); format: in vitro ADME; conditions: 100 μM
[12] = tested on: HaCat cells; test: Cytotoxicity/viability, confluent HaCat cells; format: cell-based, human; conditions: 10 μM, fully confluent HaCat cells, up to 120 h
Method: Results are presented as mean±SEM odu as a percentage of the DMSO control (n=2 independent experiments each conducted in duplicate for C and 1 experiment conducted in duplicate for D). Results in B-D were compared by ANOVA, *p<0.05, **p<0.01, ***p<0.001, ****p<0.0001).
Cell proliferation and viability were determined using the Cell Titer 96® Aqueous One Solution and optical density was determined using a SpectraMax® M5e Molecular Devices multidetection microplate reader. […] The cells were then fixed and stained for activated caspases (red) and SYTOX Green (for integrity of plasma membrane) by Image-iT™ LIVE red Poly Caspase Detection kit. Nuclei were stained with Hoechst. Images were acquired by laser confocal microscope ZeissLive/DuoScan equipped with oil immersion objectives 63×1.1 and captured in an optical slice of 0.37 μm with appropriate filters. Alternatively, immunoblots were prepared and probed with antibodies to cleaved PARP-1 or cleaved caspase 8.

[13] = tested on: phosphorylated Akt (pAkt T308); format: cell-based, human
[14] = tested on: PLSCR1; test: PLSCR1 phosphorylation after HSV-2 (immunoprecipitation/Western); format: cell-based, human; conditions: 10 μM, HaCat, 30 minutes
[15] = tested on: VSV-G; format: cell-based
[16] = tested on: VSV-EBOV-GP; format: cell-based
[17] = tested on: Akt, PDPK1; format: cell-based, monkey; conditions: 10 μM, Vero, VSV-S, 30 and 60 minutes
[18] = biological target: EGFR (Homo sapiens, UniProt P00533); test: HotSpot in vitro kinase assay, EGFR; conditions: read-out: Compound IC50, EGFR; in vitro kinase activity
[19] = biological target: c-Src (Homo sapiens, UniProt P12931); test: HotSpot in vitro kinase assay, c-Src; conditions: read-out: Compound IC50, c-Src; in vitro kinase activity
[20] = tested on: HaCat cells; test: Cell proliferation, ~50% confluent HaCat (Cell Titer 96 Aqueous One)
[21] = tested on: HaCat cells; test: Apoptosis assays (activated caspases, SYTOX Green, cleaved PARP-1/caspase 8)

T9 sequence (P31749 whole entry): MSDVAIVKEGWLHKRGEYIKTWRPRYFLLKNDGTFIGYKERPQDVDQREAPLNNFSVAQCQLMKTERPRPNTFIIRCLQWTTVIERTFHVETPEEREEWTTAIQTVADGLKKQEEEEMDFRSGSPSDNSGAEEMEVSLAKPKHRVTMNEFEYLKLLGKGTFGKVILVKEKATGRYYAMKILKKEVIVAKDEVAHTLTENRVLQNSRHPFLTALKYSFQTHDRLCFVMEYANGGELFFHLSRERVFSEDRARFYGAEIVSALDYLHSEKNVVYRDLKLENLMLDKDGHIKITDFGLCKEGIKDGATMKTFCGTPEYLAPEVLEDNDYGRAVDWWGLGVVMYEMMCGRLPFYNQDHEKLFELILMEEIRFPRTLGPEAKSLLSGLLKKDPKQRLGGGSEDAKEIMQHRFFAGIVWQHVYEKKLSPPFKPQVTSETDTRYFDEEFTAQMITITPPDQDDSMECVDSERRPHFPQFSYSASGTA
T2 sequence (Q13131 whole entry): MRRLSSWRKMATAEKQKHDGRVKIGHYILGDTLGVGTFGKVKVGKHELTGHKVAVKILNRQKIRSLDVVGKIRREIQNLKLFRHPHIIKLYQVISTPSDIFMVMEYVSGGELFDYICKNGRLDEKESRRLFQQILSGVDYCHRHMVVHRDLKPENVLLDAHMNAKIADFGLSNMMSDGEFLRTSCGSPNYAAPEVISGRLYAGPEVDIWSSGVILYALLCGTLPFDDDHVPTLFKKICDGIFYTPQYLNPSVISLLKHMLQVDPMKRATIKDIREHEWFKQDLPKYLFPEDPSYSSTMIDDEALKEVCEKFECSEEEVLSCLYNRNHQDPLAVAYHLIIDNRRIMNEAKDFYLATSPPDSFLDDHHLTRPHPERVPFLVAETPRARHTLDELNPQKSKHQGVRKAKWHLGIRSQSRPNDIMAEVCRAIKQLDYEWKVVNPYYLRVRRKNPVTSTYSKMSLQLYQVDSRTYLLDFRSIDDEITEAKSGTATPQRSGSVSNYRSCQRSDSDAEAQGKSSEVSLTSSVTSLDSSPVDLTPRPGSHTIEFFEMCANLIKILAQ
T1 sequence (O00418 whole entry): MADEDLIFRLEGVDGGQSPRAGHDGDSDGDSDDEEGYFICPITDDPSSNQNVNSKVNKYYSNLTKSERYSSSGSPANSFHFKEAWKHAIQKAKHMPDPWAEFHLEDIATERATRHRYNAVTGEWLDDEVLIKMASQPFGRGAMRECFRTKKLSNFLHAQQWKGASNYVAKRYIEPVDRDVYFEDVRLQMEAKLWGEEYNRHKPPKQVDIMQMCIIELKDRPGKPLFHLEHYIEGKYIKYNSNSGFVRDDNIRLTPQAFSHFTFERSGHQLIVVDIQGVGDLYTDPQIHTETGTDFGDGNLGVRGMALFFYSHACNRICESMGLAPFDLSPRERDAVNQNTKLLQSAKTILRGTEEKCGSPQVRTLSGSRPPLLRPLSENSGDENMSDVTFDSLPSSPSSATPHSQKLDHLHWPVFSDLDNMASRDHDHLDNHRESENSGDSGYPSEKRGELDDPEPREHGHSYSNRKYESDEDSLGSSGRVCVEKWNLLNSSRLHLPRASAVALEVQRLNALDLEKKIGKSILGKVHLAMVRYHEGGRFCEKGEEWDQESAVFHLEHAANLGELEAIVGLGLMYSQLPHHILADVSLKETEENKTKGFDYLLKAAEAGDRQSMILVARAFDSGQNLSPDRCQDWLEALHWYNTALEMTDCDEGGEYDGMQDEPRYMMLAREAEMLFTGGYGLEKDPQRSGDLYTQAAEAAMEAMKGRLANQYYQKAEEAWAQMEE
T6 sequence (Q96QT4 whole entry): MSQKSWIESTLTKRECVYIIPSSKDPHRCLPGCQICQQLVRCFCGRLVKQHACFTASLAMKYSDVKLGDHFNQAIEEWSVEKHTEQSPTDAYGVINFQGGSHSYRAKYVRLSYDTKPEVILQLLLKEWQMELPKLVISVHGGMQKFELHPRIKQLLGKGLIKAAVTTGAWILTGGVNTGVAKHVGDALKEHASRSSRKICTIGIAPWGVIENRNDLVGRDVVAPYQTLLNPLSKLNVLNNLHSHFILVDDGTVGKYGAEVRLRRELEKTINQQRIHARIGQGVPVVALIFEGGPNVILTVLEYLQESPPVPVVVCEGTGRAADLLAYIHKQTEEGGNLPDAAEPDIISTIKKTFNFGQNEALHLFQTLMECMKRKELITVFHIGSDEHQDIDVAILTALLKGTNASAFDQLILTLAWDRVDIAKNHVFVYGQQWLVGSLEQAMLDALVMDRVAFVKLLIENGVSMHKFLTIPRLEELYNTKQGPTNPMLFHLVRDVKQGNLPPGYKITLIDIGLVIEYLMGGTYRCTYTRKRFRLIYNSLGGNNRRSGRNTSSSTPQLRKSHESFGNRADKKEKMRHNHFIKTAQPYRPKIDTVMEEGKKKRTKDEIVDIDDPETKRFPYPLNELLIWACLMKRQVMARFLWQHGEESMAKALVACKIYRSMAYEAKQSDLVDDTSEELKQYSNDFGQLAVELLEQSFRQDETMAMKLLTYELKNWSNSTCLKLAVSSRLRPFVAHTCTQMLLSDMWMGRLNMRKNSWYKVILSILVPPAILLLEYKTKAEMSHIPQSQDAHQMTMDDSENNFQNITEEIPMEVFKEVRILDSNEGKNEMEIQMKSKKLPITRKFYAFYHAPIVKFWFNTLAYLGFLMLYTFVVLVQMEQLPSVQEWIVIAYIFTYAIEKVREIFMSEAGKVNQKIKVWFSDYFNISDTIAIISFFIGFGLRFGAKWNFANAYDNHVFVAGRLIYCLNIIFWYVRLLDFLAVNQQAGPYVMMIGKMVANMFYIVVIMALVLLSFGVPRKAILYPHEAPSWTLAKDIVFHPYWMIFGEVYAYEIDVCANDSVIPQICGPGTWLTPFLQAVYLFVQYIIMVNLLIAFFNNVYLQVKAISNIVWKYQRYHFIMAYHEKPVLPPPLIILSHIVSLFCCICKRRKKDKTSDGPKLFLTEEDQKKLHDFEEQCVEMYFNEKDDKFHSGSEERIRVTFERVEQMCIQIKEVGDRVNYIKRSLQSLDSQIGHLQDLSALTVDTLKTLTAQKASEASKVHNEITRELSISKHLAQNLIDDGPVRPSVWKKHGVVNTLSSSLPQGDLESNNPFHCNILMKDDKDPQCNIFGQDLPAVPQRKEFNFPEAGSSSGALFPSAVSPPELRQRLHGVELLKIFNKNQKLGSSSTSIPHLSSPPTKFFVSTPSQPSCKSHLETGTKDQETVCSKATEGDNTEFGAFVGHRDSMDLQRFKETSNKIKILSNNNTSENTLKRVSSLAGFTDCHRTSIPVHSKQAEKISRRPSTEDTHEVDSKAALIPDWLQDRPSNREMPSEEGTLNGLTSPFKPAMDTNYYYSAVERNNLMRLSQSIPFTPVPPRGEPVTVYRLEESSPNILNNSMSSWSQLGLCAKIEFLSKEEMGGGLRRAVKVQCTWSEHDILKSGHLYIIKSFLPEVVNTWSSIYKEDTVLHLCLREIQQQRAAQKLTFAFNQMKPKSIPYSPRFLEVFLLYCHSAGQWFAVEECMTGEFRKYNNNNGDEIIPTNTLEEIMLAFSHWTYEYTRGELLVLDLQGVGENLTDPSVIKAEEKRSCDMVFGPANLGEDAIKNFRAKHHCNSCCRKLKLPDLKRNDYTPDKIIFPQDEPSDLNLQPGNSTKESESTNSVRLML
T7 sequence (Q9BQI3 whole entry): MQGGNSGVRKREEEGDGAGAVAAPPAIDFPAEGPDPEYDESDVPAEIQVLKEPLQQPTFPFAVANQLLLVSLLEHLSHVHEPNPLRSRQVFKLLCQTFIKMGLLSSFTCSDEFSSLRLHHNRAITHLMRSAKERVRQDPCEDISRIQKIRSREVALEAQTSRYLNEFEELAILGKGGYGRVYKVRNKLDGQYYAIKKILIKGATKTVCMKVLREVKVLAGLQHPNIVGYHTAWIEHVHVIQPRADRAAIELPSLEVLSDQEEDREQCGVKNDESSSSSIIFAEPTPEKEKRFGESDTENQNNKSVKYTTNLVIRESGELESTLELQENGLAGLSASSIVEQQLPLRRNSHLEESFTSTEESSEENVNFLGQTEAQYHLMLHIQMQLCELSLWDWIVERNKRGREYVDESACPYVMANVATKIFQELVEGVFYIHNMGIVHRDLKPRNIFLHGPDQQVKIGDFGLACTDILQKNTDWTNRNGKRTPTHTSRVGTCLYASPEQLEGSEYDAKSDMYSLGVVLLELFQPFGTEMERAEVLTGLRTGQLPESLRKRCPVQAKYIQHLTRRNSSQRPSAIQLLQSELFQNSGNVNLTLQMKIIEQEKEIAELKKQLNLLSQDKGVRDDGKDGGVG
T10 sequence (P31751 whole entry): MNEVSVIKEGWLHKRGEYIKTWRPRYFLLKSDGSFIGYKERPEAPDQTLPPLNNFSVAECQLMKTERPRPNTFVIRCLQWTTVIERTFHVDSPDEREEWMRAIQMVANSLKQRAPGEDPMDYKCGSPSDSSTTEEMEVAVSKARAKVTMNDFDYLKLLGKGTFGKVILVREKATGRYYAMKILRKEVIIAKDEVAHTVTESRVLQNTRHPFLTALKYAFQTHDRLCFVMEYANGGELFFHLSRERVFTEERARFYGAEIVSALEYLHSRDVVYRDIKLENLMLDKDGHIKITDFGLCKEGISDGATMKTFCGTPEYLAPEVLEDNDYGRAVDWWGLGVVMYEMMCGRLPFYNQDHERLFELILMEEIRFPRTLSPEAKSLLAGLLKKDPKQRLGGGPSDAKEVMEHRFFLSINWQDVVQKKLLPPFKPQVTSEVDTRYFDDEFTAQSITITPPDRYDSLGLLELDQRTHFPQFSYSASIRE

Question: Which remaining activity at 10 µM ([1]; read-out: % Enzyme Activity (relative to DMSO controls) CIMSS (10 μM) Data 1, kinase EEF2K, Data 1) does the source give for `CO[C@@H]1[C@H](N(C)C(=O)CCC(=O)NCc2cn(CCCS(=O)(=O)[O-])nn2)C[C@H]2O[C@]1(C)n1c3ccccc3c3c4c(c5c6ccccc6n2c5c31)C(=O)NC4.[Na+]` [CIMSS] here?
Answer: 99.5%

Question: What about the remaining activity at 10 µM ([1]; read-out: % Enzyme Activity (relative to DMSO controls) CIMSS (10 μM) Data 2, kinase EEF2K, Data 2) of the same compound?
Answer: 97%

Question: What about the remaining activity at 10 µM ([2]; read-out: % Enzyme Activity (relative to DMSO controls) CIMSS (10 μM) Data 1, kinase AMPK(A1/B1/G1), Data 1) of the same compound?
Answer: 1.14%

Question: And the remaining activity at 10 µM ([2]; read-out: % Enzyme Activity (relative to DMSO controls) CIMSS (10 μM) Data 1, kinase AMPK(A1/B1/G2), Data 1)?
Answer: 1.46%

Question: What about the remaining activity at 10 µM ([2]; read-out: % Enzyme Activity (relative to DMSO controls) CIMSS (10 μM) Data 1, kinase AMPK(A1/B1/G3), Data 1) of the same compound?
Answer: 0.22%

Question: What about the remaining activity at 10 µM ([2]; read-out: % Enzyme Activity (relative to DMSO controls) CIMSS (10 μM) Data 1, kinase AMPK(A1/B2/G1), Data 1) of the same compound?
Answer: 0.73%

Question: And the remaining activity at 10 µM ([2]; read-out: % Enzyme Activity (relative to DMSO controls) CIMSS (10 μM) Data 2, kinase AMPK(A1/B1/G1), Data 2)?
Answer: 1.14%

Question: And the remaining activity at 10 µM ([2]; read-out: % Enzyme Activity (relative to DMSO controls) CIMSS (10 μM) Data 2, kinase AMPK(A1/B1/G2), Data 2)?
Answer: 1.23%

Question: And the remaining activity at 10 µM ([2]; read-out: % Enzyme Activity (relative to DMSO controls) CIMSS (10 μM) Data 2, kinase AMPK(A1/B1/G3), Data 2)?
Answer: 0.07%

Question: And the remaining activity at 10 µM ([2]; read-out: % Enzyme Activity (relative to DMSO controls) CIMSS (10 μM) Data 2, kinase AMPK(A1/B2/G1), Data 2)?
Answer: 0.57%

Question: And the remaining activity at 10 µM ([3]; read-out: % Enzyme Activity (relative to DMSO controls) CIMSS (10 μM) Data 1, kinase PDK2/PDHK2, Data 1)?
Answer: 95.5%

Question: What about the remaining activity at 10 µM ([3]; read-out: % Enzyme Activity (relative to DMSO controls) CIMSS (10 μM) Data 2, kinase PDK2/PDHK2, Data 2) of the same compound?
Answer: 94%

Question: And the remaining activity at 10 µM ([4]; read-out: % Enzyme Activity (relative to DMSO controls) CIMSS (10 μM) Data 1, kinase PDK3/PDHK3, Data 1)?
Answer: 96.4%

Question: And the remaining activity at 10 µM ([4]; read-out: % Enzyme Activity (relative to DMSO controls) CIMSS (10 μM) Data 2, kinase PDK3/PDHK3, Data 2)?
Answer: 94.8%

Question: And the remaining activity at 10 µM ([5]; read-out: % Enzyme Activity (relative to DMSO controls) CIMSS (10 μM) Data 1, kinase PDK4/PDHK4, Data 1)?
Answer: 93.2%

Question: And the remaining activity at 10 µM ([5]; read-out: % Enzyme Activity (relative to DMSO controls) CIMSS (10 μM) Data 2, kinase PDK4/PDHK4, Data 2)?
Answer: 93%

Question: And the remaining activity at 10 µM ([6]; read-out: % Enzyme Activity (relative to DMSO controls) CIMSS (10 μM) Data 1, kinase TRPM7/CHAK1, Data 1)?
Answer: 91.6%

Question: And the remaining activity at 10 µM ([6]; read-out: % Enzyme Activity (relative to DMSO controls) CIMSS (10 μM) Data 2, kinase TRPM7/CHAK1, Data 2)?
Answer: 91.5%

Question: What about the remaining activity at 10 µM ([7]; read-out: % Enzyme Activity (relative to DMSO controls) CIMSS (10 μM) Data 1, kinase EIF2AK1, Data 1) of the same compound?
Answer: 82.5%

Question: What about the remaining activity at 10 µM ([7]; read-out: % Enzyme Activity (relative to DMSO controls) CIMSS (10 μM) Data 2, kinase EIF2AK1, Data 2) of the same compound?
Answer: 81.2%

Question: And the remaining activity at 10 µM ([8]; read-out: % Enzyme Activity (relative to DMSO controls) CIMSS (10 μM) Data 1, kinase EIF2AK4, Data 1)?
Answer: 9.5%

Question: And the remaining activity at 10 µM ([8]; read-out: % Enzyme Activity (relative to DMSO controls) CIMSS (10 μM) Data 2, kinase EIF2AK4, Data 2)?
Answer: 9.39%

Question: And the “fold less effective than staurosporine (IC50), Akt1” value [9]?
Answer: ~230 fold

Question: What about the IC50 ([9]; in vitro kinase activity, read-out: Compound IC50, AKT1) of the same compound?
Answer: 461 nM

Question: What about the inhibition at 10 µM ([9]; read-out: inhibition of Akt1) of the same compound?
Answer: > 75%

Question: What about the IC50 ([10]; in vitro kinase activity, read-out: Compound IC50, AKT2) of the same compound?
Answer: 1000 nM

Question: What about the inhibition at 10 µM ([10]; read-out: inhibition of Akt2) of the same compound?
Answer: > 75%

Question: And the “Recover %, PAMPA” value [11]?
Answer: 83%

Question: What about the cytotoxicity [12] of the same compound?
Answer: little or no cytotoxicity

Question: And the “concentration without inhibition of intracellular Akt phosphorylation in response to insulin, relative to the parental drug” value [13]?
Answer: 100-1000 fold

Question: What about the “dose inhibiting intracellular Akt phosphorylation in response to insulin” value ([13]; HaCat, 10 μM insulin, permeabilized cells) of the same compound?
Answer: > 100 µM

Question: What about the “phosphorylation of PLSCR1 after HSV-2” value [14] of the same compound?
Answer: not

Question: What about the “VSV-G infection, percentage of GFP+ cells” value [15] of the same compound?
Answer: no effect

Question: What about the “VSV-EBOV-GP infection, percentage of GFP+ cells” value [16] of the same compound?
Answer: no effect

Question: And the “extracellular phosphorylation of Akt (biotinylation, pAktT308)” value [17]?
Answer: inhibited

Question: And the IC50 [18]?
Answer: 1610 nM

Question: And the IC50 [19]?
Answer: 11.9 nM

Question: And the “lowest concentration significantly inhibiting HaCat cell growth” value ([20]; 24 h)?
Answer: no significant inhibition

Question: And the “lowest concentration significantly inhibiting HaCat cell growth” value ([20]; 72 h)?
Answer: 100 µM

Question: And the “induction of apoptosis (SYTOX Green and anti-caspase staining)” value ([21]; 10 μM, 6 or 24 hours)?
Answer: did not induce apoptosis

Question: And the “PARP-1 or caspase 8 cleavage” value ([21]; 0.1, 1 or 10 μM, 8 hours)?
Answer: did not induce PARP-1 or caspase 8 cleavage
